Assay results as given in patent US20140360376A1, “RECOVERY OF HIGHER ALCOHOLS FROM DILUTE AQUEOUS SOLUTIONS” (GEVO, INC., priority 2007, published 2014).
Several values for one entry are separate records, joined by “and”; a condition that tells them apart may be missing. Equal values may be shown once. Read-outs that look alike come from different tables or passages of the source. Each block holds one molecule with its values, some of them ahead of it.

Assays:
[1] = Enrichment/extraction of i-BuOH from aqueous solution by contact with 2-heptanone; assay type: physicochemical; details: 25° C.
[2] = Enrichment/extraction of i-BuOH from aqueous solution by contact with decanol; assay type: physicochemical; details: 25° C.
[3] = Enrichment by glucose addition followed by contact with gasoline; assay type: physicochemical; details: for Increase of alcohol concentration in the gasoline phase in the presence of glucose: compared with example 3 (no glucose); for Alcohol Wt % in heavy phase / Alcohol Wt % in light phase / Alcohol Da: gasoline, 20% (w/w) glucose, 24° C.; for Alcohol Da: light/heavy phase
Method: (§1) These solutions were then mixed with gasoline. The gasoline used was commercial grade with a 95 octane rating. At equilibrium, phase separation was observed forming an upper alcohol rich phase (light phase) and a lower alcohol lean phase (heavy phase). Both phases were analyzed for alcohol and water content. The distribution coefficient of the alcohol was calculated for each experiment by dividing the alcohol concentration in the light phase by the concentration in the heavy phase. The distribution coefficient for water was calculated accordingly. The Enrichment factor was calculated by dividing the distribution coefficient of alcohol by the distribution coefficient of water. All experiments were carried out at 24° C.

[4] = Enrichment by calcium chloride addition followed by contact with gasoline; assay type: physicochemical; details: for Increase of alcohol concentration in the gasoline phase in the presence of calcium chloride: compared with example 3 (no calcium chloride); for Alcohol Wt % in heavy phase / Alcohol Wt % in light phase / Alcohol Da: gasoline, 15% (w/w) calcium chloride, 24° C.; for Alcohol Da: light/heavy phase
Method: as §1, with “observed,” for “observed”, “contents.” for “content.”, “phase.” for “phase. The distribution coefficient for water was calculated accordingly. The Enrichment factor was calculated by dividing the distribution coefficient of alcohol by the distribution coefficient of water.”

[5] = Enrichment of C3-C6 alcohols from aqueous solutions by contact with octane; assay type: physicochemical; details: 24° C.
Method: Several aqueous solutions were prepared for each alcohol, differing in their alcohol concentrations, all of which were sub-saturated. […] The phase ratio between the aqueous solution and the solvent differed from one case to the other. Mixing was continued until equilibrium was reached. At equilibrium, phase separation could be observed forming an upper, alcohol-rich phase (light phase) and a lower, alcohol-lean phase (heavy phase). Both phases were analyzed for alcohol and water content. […] The water content of the organic phases was determined by the Karl-Fischer method. These analytical methods were also used for the analyses in the other examples.
The distribution coefficient of the alcohol was calculated for each experiment by dividing the alcohol concentration in the light phase by the alcohol concentration in the heavy phase. Similarly, the distribution coefficient for water was calculated by dividing the water concentration in the light phase by the water concentration in the heavy phase. The enrichment factor was calculated by dividing the distribution coefficient of alcohol by the distribution coefficient of water. In addition, the alcohol to water ratio (w/w) was calculated for the light phase.

[6] = Enrichment of C3-C6 alcohols from aqueous solutions by contact with gasoline; assay type: physicochemical; details: 24° C.
Method: The gasoline used was commercial grade with a 95 octane rating. […] Both phases were analyzed for alcohol and water content. The distribution coefficient of the alcohol was calculated for each experiment by dividing the alcohol concentration in the light phase by the concentration in the heavy phase. Similarly, the distribution coefficient for water was calculated by dividing the water concentration in the light phase by the water concentration in the heavy phase. The enrichment factor was calculated by dividing the distribution coefficient of alcohol by the distribution coefficient of water. All experiments were carried out at 24° C.

[7] = for Number of phases: aqueous propanol, 25° C.
Method: The number of liquid phases present in each mixture at 25° C. was noted.

[8] = Enrichment/extraction of i-BuOH from aqueous solution by contact with tri-butyl phosphate; assay type: physicochemical; details: 25° C.
[9] = Phase separation of 7% butanol or isobutanol solutions by addition of glucose; assay type: physicochemical; details: 7% alcohol, glucose 20% (w/w), 25° C.
Method: (§2) This example illustrates the induction of phase separation of butanol or isobutanol in water solutions by addition of glucose. […] The light and heavy phases were analyzed for alcohol content for each experiment. All experiments were carried out at 25° C. The distribution coefficient was calculated by division of the concentration of butanol in the light phase by the concentration of butanol in the heavy phase.

[10] = Phase separation of 4% butanol or isobutanol solutions by addition of calcium chloride; assay type: physicochemical; details: 4% alcohol, calcium chloride 15% (w/w), 25° C.
Method: as §2, with “calcium chloride addition.” for “addition of glucose.”

[11] = Mutual solubility of isobutanol and water as a function of temperature; assay type: physicochemical; details: isobutanol-water
Method: First, 20 g of water were mixed with 20 g isobutanol in closed vials at room temperature. The vials were then mixed at 5, 10, 20, 40, 60 or 80° C. The vials were held at the stated temperature while being mixed until equilibrium was established. Then the samples were separated into light and heavy phases while being held at temperature. The samples from the light and the heavy phases were analyzed by HPLC and by Karl-Fischer titration.

[12] = Contact of sub-saturated aqueous isobutanol with 3 Angstrom molecular sieve particles; assay type: physicochemical; details: 2 g sub-saturated aqueous isobutanol with 1.5 g of 3 Angstrom molecular sieve particles
Method: This example illustrates the isobutanol enrichment from aqueous isobutanol solutions using molecular sieves to adsorb water. A sub-saturated solution of isobutanol in water was prepared. Two grams of this solution were thoroughly mixed with 1.5 g of 3 Angstrom molecular sieve particles in a vial. After mixing, the vial was left to settle.

[13] = Phase separation of aqueous t-butanol by addition of glucose; assay type: physicochemical
Method: This example illustrates the induction of phase separation of t-butanol (t-BuOH) in water solution by addition of glucose. An aqueous solution of t-butanol (50% v/v) was prepared at 25° C. and glucose was added to a final concentration of 20% (w/v). […] Both phases were analyzed for t-butanol concentration. The t-BuOH and glucose concentrations in the heavy phase were about 150 g/L and about 45% w/w, respectively. The light phase had about 520 g/L of t-BuOH.

[14] = aqueous i-BuOH heavy phase, equilibrium
[15] = 50% v/v aqueous t-butanol, glucose 20% (w/v), 25° C.

2-Heptanone Wt % in heavy phase [1, 14]: 0.34 Wt % and 0.29 Wt % and 0.40 Wt %
Compound: CCCCCC(C)=O [2-Heptanone]

Increase of alcohol concentration in the gasoline phase in the presence of glucose [3]: greater than 10 fold
Alcohol Wt % in heavy phase [3]: 0.16 Wt %
Alcohol Wt % in light phase [3]: 3.4 Wt %
Alcohol Da [3]: 21
Increase of alcohol concentration in the gasoline phase in the presence of calcium chloride [4]: greater than 10 fold
Alcohol Wt % in heavy phase [4]: 0.14 Wt %
Alcohol Wt % in light phase [4]: 2.2 Wt %
Alcohol Da [4]: 15
Compound: CCCCCO [PenOH, n-Pentanol]

i-BuOH Wt % in heavy phase ([8]; equilibrium): 0.22 Wt % and 1.2 Wt % and 1.9 Wt %
i-BuOH Wt % in light phase ([8]; equilibrium): 1.2 Wt % and 5.6 Wt % and 9.8 Wt %
Enrichment factor ([8]; Da/Dw): 76 and 74 and 82
Distribution coefficient i-BuOH Da ([8]; light/heavy phase): 5.4 and 4.9 and 5.2
Enrichment factor ([2]; Da/Dw, decanol): 116 and 119 and 99
i-BuOH Wt % in heavy phase ([2]; decanol, equilibrium): 1.4 Wt % and 2.2 Wt % and 0.30 Wt %
Distribution coefficient i-BuOH Da ([2]; light/heavy phase, decanol): 5.2 and 5.5 and 3.8
i-BuOH Wt % in heavy phase ([1]; 2-Heptanone, equilibrium): 1.7 Wt % and 2.0 Wt % and 0.44 Wt %
i-BuOH Wt % in light phase ([1]; 2-Heptanone, equilibrium): 5.4 Wt % and 8.4 Wt % and 1.15 Wt %
Enrichment factor ([1]; Da/Dw, 2-Heptanone): 125 and 116 and 155
Distribution coefficient i-BuOH Da ([1]; light/heavy phase, 2-Heptanone): 3.3 and 4.1 and 2.6
Increase of alcohol concentration in the gasoline phase in the presence of glucose [3]: 2 fold
Alcohol Wt % in heavy phase [3]: 1.4 Wt %
Alcohol Wt % in light phase [3]: 1.9 Wt %
Alcohol Da [3]: 1.36
Increase of alcohol concentration in the gasoline phase in the presence of calcium chloride [4]: 4.5 fold
Alcohol Wt % in heavy phase [4]: 0.94 Wt %
Alcohol Wt % in light phase [4]: 3.3 Wt %
Alcohol Da [4]: 3.5
Alcohol in heavy phase (% w/w) [9]: 5.1 % w/w
Alcohol in light phase (% w/w) [9]: 87 % w/w
Concentration in the light phase compared to the starting solution [9]: approximately 12 fold
Distribution coefficient ([9]; light/heavy phase): 17
Alcohol in heavy phase (% w/w) [10]: 2.9 % w/w
Alcohol in light phase (% w/w) [10]: 91 % w/w
Concentration in the light phase compared to the starting solution [10]: approximately 23 fold
Distribution coefficient ([10]; light/heavy phase): 31
Isobutanol Wt % in light phase ([11]; 5° C.): 83.9 Wt %
Isobutanol Wt % in light phase ([11]; 10° C.): 84.0 Wt %
Isobutanol Wt % in light phase ([11]; 20° C.): 83.4 Wt %
Isobutanol Wt % in light phase ([11]; 40° C.): 81.5 Wt %
Isobutanol Wt % in light phase ([11]; 60° C.): 79.1 Wt %
Isobutanol Wt % in light phase ([11]; 80° C.): 76.5 Wt %
Phases observed after settling [12]: two liquid phases
Compound: CC(C)CO [i-BuOH, 2-methyl-1-propanol]

Further lines, the molecule ahead of its results:

Compound: CCCCCCCCCCO [Decanol, decanol]
Decanol Wt % in heavy phase [2, 14]: 0.0043 Wt % and 0.0053 Wt % and 0.0020 Wt %

Compound: CCCO [PrOH, propanol]
Alcohol Wt % in heavy phase ([5]; equilibrium): 1.9 Wt % and 5.7 Wt % and 0.66 Wt %
Alcohol Wt % in light phase ([5]; equilibrium): 0.07 Wt % and 0.24 Wt % and 0.03 Wt %
Enrichment factor ([5]; Da/Dw): >80 and >100
Alcohol Wt % in heavy phase ([6]; equilibrium): 5.1 Wt % and 0.61 Wt % and 1.9 Wt %
Alcohol Wt % in light phase ([6]; equilibrium): 0.50 Wt % and 0.08 Wt % and 0.16 Wt %
Enrichment factor ([6]; Da/Dw): >200 and >240 and >160
Miscibility with water ([7]; any proportion, no additive): fully miscible with water
Number of phases ([7]; CaCl2 9.5%): 1
Number of phases ([7]; CaCl2 15.1%): 2
Number of phases ([7]; Glucose 40%): 1
Number of phases ([7]; Glucose 60%): 2
Number of phases ([7]; Sucrose 40%): 2
Number of phases ([7]; no hydrophilic solute): 1

Compound: CC(C)(C)O [t-BuOH, 2-methyl-2-propanol]
Enrichment in the light phase compared to the heavy phase (factor) [13, 15]: about 3.5
t-BuOH concentration in the heavy phase [13, 15]: about 150 g/L
t-BuOH concentration in the light phase [13, 15]: about 520 g/L
Miscibility with water ([13]; any proportion, no additive): fully miscible with water
